This note sets out measurements from ChEMBL document CHEMBL4814072, “Chemoenzymatic synthesis of 2,6-disubstituted tetrahydropyrans with high σ1 receptor affinity, antitumor and analgesic activity” (Eur J Med Chem, 2021).

The target of series [1] is Glutamate [NMDA] receptor (Homo sapiens) (UniProt Q05586+Q12879+Q13224+O15399+O60391+Q14957+Q8TCU5). Put plainly: Displacement of [3H]-(+)-MK801 from PCP binding site of NMDA receptor (unknown origin). The format is protein-complex assay. To be noted: dose 1.0 µM. On the technique in general: In a radioligand displacement assay an active substance lowers the binding of a labelled ligand.

Series [2] deals with Sigma non-opioid intracellular receptor 1 (Cavia porcellus, UniProt Q60492).
Sigma non-opioid intracellular receptor 1, sequence (Q60492 whole entry): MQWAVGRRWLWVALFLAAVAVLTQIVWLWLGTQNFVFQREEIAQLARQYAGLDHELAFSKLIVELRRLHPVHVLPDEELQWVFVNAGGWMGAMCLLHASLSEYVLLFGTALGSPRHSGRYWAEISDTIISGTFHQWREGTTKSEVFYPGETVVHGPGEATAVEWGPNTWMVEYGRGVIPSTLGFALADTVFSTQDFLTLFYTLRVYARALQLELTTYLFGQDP
Series [3] addresses T1, Sigma intracellular receptor 2 (Rattus norvegicus, UniProt Q5U3Y7).
T1 sequence (Q5U3Y7 whole entry): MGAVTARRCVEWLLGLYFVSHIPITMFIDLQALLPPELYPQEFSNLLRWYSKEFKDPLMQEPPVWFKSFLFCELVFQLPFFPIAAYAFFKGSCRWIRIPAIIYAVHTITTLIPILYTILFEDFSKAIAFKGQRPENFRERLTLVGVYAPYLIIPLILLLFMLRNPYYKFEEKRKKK
Put plainly: Displacement of [3H]-di-o-tolylguanidine from sigma2 receptor in rat liver membrane by solid scintillation counting method. Type of series: cell membranes.

Series [4] deals with Mus musculus. Description: Antiallodynic activity in CD-1 mouse assessed as analgesia at 40 mg/kg, sc administered 30 mins prior to capsaicin stimulation and measured after 15 mins by von Frey test (reference value: 97.3 %). The format is functional. To be noted: time 45 min, 0.75 h.
Series [5] concerns the target T2, Cytochrome P450 1A2 (Homo sapiens, UniProt P05177).
T2 sequence (P05177 whole entry): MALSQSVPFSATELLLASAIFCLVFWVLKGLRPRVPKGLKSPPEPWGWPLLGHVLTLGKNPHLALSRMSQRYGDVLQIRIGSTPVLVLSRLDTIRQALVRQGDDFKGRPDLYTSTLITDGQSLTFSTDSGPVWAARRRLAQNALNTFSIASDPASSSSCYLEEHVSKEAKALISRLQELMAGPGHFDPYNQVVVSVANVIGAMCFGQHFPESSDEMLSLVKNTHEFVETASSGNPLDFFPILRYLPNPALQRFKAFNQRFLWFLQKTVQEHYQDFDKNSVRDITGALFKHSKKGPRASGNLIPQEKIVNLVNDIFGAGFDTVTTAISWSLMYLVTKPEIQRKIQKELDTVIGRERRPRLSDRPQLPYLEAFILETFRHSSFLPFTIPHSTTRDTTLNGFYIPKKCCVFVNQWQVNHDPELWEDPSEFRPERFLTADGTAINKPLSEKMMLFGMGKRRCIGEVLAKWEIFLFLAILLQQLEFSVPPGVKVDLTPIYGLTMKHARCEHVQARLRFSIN
Put plainly: Inhibition of CYP1A2 (unknown origin) at 1 uM. Type of series: ADME.

In series [6] the target is T3, 5-hydroxytryptamine receptor 1A (Homo sapiens) (UniProt P08908).
T3 sequence (whole entry): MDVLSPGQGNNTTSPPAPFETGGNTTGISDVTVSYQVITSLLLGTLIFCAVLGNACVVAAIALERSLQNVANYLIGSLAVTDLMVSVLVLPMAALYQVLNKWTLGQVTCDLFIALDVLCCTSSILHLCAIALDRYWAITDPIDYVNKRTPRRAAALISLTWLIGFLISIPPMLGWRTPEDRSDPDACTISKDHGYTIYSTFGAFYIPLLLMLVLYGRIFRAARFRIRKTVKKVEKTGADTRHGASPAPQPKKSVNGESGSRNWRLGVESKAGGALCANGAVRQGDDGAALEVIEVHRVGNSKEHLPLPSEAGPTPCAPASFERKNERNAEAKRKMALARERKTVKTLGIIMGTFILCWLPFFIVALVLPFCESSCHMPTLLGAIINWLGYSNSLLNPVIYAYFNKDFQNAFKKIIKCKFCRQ
Put plainly: Binding affinity to human 5HT1A receptor.

Series [7] deals with Delta-type opioid receptor (Homo sapiens) (UniProt P41143). Put plainly: Binding affinity to human delta opioid receptor.
Delta-type opioid receptor (Homo sapiens), sequence (P41143 whole entry): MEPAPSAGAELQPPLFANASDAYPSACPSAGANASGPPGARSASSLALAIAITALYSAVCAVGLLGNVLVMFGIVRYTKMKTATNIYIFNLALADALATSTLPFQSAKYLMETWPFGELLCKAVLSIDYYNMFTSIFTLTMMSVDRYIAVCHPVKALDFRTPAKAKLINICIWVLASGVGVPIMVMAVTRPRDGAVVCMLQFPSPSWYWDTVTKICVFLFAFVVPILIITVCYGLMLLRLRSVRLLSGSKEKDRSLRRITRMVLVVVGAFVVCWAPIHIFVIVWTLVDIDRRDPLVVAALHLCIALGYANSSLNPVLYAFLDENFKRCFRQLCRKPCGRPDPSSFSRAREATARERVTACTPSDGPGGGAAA
Series [8] has as its target Sodium-dependent serotonin transporter (Homo sapiens) (UniProt P31645). Description: Inhibition of serotonin transporter (unknown origin).
Series [9] has as its target Cytochrome P450 2C19 (Homo sapiens, UniProt P33261). Put plainly: Inhibition of CYP2C19 (unknown origin) at 1 uM. The format is ADME.
In series [10] the target is Sodium-dependent dopamine transporter (Homo sapiens) (UniProt Q01959). Put plainly: Inhibition of dopamine transporter (unknown origin).
Sodium-dependent dopamine transporter (Homo sapiens), sequence (Q01959 whole entry): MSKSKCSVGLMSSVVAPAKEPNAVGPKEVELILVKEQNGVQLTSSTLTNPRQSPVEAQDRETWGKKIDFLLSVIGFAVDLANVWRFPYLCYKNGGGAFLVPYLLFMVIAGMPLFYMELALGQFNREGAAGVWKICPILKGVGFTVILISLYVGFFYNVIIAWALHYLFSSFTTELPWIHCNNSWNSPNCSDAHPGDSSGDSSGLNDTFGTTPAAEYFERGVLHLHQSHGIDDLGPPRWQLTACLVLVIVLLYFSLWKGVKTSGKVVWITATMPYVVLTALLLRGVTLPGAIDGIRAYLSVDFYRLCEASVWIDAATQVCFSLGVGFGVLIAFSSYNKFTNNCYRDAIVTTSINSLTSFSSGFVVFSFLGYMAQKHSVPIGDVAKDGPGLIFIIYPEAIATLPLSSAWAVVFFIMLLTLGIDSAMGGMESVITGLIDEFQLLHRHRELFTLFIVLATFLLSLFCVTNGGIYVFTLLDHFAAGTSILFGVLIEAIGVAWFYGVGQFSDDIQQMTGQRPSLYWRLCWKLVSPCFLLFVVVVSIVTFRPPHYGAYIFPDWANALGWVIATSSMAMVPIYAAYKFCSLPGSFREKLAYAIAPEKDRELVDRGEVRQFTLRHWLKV
The target of series [11] is 5-hydroxytryptamine receptor 2B (Homo sapiens) (UniProt P41595). Put plainly: Binding affinity to human 5HT2B receptor.
In series [12] the test system is DU-145. Put plainly: Antiproliferative activity against androgen-negative human DU145 cells assessed as inhibition of cell growth at 10 uM measured after 72 hrs by SRB assay. Type of series: functional, cell-based.
In series [13] the target is Sodium-dependent noradrenaline transporter (Homo sapiens) (UniProt P23975). Put plainly: Inhibition of noradrenaline transporter (unknown origin).
Sodium-dependent noradrenaline transporter (Homo sapiens), sequence (P23975 whole entry): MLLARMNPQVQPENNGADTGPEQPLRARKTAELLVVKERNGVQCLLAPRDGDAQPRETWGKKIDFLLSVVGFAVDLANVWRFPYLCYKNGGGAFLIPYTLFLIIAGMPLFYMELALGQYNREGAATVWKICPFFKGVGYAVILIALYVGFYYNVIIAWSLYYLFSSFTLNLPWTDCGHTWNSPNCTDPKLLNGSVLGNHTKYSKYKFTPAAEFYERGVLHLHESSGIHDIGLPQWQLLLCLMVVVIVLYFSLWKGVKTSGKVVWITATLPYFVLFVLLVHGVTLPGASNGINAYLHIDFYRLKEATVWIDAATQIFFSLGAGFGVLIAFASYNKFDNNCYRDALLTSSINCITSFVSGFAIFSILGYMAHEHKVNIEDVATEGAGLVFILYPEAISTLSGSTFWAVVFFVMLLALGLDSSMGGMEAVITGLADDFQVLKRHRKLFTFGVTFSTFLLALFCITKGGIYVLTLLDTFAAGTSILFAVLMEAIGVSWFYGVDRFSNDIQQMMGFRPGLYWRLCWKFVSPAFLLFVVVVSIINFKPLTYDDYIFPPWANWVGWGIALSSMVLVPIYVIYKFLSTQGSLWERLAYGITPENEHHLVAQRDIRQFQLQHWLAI
The target in series [14] is Cytochrome P450 2C9 (Homo sapiens, UniProt P11712). Description: Inhibition of CYP2C9 (unknown origin) at 1 uM. The format is ADME.
Cytochrome P450 2C9, sequence (P11712 whole entry): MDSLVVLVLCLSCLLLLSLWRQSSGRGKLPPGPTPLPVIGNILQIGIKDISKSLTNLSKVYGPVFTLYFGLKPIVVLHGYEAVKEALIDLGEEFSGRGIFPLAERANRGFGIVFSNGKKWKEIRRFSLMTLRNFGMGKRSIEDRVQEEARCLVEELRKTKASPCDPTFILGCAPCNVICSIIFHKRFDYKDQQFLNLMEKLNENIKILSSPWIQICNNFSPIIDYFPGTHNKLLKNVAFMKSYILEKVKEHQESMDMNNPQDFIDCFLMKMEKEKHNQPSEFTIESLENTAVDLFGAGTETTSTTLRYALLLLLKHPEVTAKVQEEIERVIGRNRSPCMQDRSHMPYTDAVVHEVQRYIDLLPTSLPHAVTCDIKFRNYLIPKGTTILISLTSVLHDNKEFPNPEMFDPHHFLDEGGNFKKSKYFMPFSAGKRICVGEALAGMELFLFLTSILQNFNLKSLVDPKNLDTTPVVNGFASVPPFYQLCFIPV
Series [15] has as its target Kappa-type opioid receptor (Homo sapiens) (UniProt P41145). Put plainly: Binding affinity to human kappa opioid receptor.
The target in series [16] is Mu-type opioid receptor (Homo sapiens) (UniProt P35372). Put plainly: Binding affinity to human mu opioid receptor.
Mu-type opioid receptor (Homo sapiens), sequence (P35372 whole entry): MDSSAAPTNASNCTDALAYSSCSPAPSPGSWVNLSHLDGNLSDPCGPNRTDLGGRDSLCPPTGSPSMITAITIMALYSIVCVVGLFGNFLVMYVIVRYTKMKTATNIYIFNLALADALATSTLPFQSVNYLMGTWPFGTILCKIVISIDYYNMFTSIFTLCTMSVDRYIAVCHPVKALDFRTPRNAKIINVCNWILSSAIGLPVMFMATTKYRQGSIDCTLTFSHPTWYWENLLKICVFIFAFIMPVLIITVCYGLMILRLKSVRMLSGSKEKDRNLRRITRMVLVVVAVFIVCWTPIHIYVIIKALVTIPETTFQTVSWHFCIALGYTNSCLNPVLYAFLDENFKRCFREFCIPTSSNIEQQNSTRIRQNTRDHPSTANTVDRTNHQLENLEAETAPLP
Series [17] has as its target T4, Alpha-2A adrenergic receptor (Homo sapiens) (UniProt P08913).
T4 sequence (whole entry): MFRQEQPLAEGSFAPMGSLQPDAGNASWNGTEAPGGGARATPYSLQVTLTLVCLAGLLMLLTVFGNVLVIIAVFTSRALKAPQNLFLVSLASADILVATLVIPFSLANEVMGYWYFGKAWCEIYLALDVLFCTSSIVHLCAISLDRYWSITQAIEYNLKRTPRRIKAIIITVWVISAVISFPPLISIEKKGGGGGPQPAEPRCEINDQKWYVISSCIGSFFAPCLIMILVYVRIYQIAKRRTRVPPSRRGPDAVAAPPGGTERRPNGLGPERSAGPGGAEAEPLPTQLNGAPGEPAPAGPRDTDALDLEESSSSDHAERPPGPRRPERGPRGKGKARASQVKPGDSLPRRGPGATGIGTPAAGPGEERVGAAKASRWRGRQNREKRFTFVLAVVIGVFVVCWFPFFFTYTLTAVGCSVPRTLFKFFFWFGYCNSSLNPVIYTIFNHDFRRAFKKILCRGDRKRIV
Description: Binding affinity to human alpha2A adrenergic receptor.

Series [18] deals with Cytochrome P450 3A4 (Homo sapiens, UniProt P08684). Put plainly: Inhibition of CYP3A4 (unknown origin) at 1 uM. The format is ADME.
Cytochrome P450 3A4, sequence (P08684 whole entry): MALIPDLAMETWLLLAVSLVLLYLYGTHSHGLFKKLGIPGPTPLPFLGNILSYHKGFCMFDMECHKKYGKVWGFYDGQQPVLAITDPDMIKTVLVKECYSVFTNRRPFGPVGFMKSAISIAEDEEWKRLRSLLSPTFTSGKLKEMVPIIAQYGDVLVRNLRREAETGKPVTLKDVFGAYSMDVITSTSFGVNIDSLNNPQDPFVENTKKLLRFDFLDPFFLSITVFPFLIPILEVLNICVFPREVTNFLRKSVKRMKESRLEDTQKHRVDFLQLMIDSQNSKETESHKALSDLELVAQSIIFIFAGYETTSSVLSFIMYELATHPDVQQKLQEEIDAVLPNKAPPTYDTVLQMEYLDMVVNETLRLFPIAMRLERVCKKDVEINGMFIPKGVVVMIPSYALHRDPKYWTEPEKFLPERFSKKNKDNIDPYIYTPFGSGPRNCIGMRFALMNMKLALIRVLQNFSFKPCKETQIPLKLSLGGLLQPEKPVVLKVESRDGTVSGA
Series [19] concerns the target Adrenergic receptor alpha-1 (Homo sapiens) (UniProt P35348+P25100+P35368). Description: Binding affinity to human alpha1 adrenergic receptor. The format is protein assay.
Series [20] concerns the target Sigma intracellular receptor 2 (Rattus norvegicus) (UniProt Q5U3Y7). Description: Displacement of [3H]-di-o-tolylguanidine from sigma2 receptor in rat liver membrane at 1 uM by solid scintillation counting method. The format is cell membranes.
In series [21] the target is Sigma non-opioid intracellular receptor 1 (Cavia porcellus) (UniProt Q60492). Put plainly: Displacement of [3H]-(+)-pentazocine from sigma1 receptor in guinea pig brain membrane at 1 uM measured after 120 mins by solid scintillation counting method. The format is cell membranes.
Sigma non-opioid intracellular receptor 1 (Cavia porcellus), sequence (Q60492 whole entry): as the sequence (Q60492 whole entry) above
Series [22] can be described thus: Selectivity ratio of Ki for sigma2 receptor in rat liver membrane to Ki for sigma1 receptor in guinea pig brain membrane. The format is cell membranes.

Active and inactive are the calls of the source. The calls are words filed in the database; no cut-off is given here.

Cytochrome P450 2C19, sequence (P33261 whole entry): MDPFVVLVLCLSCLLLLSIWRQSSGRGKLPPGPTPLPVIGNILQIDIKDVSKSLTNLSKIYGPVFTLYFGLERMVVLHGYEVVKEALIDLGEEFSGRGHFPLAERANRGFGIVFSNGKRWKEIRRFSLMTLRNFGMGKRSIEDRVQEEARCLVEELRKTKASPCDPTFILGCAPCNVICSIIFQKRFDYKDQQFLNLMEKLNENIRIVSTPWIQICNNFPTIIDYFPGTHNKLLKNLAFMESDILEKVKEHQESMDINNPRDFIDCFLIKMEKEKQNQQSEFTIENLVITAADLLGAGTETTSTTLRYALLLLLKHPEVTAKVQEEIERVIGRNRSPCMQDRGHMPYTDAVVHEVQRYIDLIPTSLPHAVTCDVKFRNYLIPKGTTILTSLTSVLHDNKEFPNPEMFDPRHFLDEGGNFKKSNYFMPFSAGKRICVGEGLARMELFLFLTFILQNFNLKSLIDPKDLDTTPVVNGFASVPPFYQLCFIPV
Sodium-dependent serotonin transporter (Homo sapiens), sequence (P31645 whole entry, looked up): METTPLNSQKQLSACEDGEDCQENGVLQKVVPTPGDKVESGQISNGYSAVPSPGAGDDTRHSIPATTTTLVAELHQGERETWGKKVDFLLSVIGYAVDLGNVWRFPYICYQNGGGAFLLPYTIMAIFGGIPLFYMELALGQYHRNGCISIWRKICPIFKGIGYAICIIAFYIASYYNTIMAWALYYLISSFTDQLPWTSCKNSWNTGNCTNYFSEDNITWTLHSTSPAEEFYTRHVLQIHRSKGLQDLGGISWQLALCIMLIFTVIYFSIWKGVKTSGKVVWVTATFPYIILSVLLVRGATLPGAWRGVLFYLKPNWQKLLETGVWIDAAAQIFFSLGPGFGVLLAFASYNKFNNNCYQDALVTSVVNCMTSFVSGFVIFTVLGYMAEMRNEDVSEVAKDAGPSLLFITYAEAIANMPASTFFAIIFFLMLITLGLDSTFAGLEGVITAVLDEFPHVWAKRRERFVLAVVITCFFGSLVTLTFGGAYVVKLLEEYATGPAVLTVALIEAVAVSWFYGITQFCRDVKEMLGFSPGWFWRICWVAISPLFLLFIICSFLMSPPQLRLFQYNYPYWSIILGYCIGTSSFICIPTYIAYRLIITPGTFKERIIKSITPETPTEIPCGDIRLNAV
Kappa-type opioid receptor (Homo sapiens), sequence (P41145 whole entry): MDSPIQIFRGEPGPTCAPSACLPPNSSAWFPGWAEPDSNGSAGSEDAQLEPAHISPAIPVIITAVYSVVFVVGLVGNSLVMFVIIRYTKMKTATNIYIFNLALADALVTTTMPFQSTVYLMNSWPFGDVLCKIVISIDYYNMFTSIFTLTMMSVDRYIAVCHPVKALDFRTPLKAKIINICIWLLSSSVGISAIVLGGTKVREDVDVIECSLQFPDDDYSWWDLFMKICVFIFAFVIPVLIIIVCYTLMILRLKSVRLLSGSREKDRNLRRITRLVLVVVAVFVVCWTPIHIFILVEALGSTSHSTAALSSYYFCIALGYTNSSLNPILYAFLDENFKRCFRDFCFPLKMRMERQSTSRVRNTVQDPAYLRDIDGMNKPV

In general, inhibition refers to the share of the control response that was lost under treatment. Usually Ki stands for the dissociation constant of the complex between target and ligand, obtained from inhibition or displacement. Low values mean a stronger hold on the target, high ones a looser hold on the target. Turning to `c1ccc(CCCCNCC[C@H]2CCC[C@@H](c3ccccc3)O2)cc1`, the inhibition in [1] turned out to be 42%. Moreover, the inhibition constant (Ki) in series [2] came to 0.029 µM; in series [3], 0.377 µM.

With `Cc1cc(OCCN2CCOCC2)nn1-c1ccc2ccccc2c1`, in series [4], the Activity came to 97%.

As to `c1ccc([C@@H]2CCC[C@H](CCNCC3CCCCC3)O2)cc1`, the “inhibition (INH)” value in [5], in [9], in series [14] and in [18] was “Not Active” each time. The result in series [6], in [7], in series [11], in series [15], in series [16] and in series [17] was inactive. For the same molecule, in series [19], the result was inactive. The molecule also yielded an inhibition in [1] of 7%. Besides, the inhibition result in series [8], in series [10] and in [13] was “inactive” in each case. The Ki in series [2] is 0.0024 µM; in [3], 0.036 µM. In addition, the outcome in series [12] was Active. For the same molecule, the Activity in [4] is recorded as 53%.

Consider `NCC[C@H]1CCC[C@@H](c2ccccc2)O1`, for which the inhibition was found to be 43% in [1], 10% in series [20] and 4% in [21].

For `c1ccc(CNCC[C@@H]2CCC[C@H](c3ccccc3)O2)cc1`, the “inhibition (INH)” value in series [5], in [9], in [14] and in series [18] was “Not Active” in each case. Besides, the outcome in [6], in [7], in [11], in series [15], in series [16] and in series [17] was inactive. For the same molecule, the outcome in series [19] was inactive. For the same molecule, the Ratio Ki in [22] was 236. Also, the inhibition entry in series [8], in series [10] and in [13] was “inactive” in each case. In addition, the inhibitory constant (Ki) worked out at 0.0016 µM in series [2] and 0.378 µM in series [3]. For the same molecule, the result in series [12] was Active. In series [4], the Activity came out at 21%.

Consider `CN(C)CC[C@@H]1CCC[C@H](c2ccccc2)O1`, for which, in series [1], the inhibition came to 37%. In addition, the results for the Ki in series [2] and in [3] were 0.465 µM and 2.3 µM, respectively.

Take `c1ccc([C@@H]2CCC[C@H](CCN3CCCC3)O2)cc1`: the results for the inhibition constant (Ki) in series [2] and in series [3] were 0.031 µM and 0.17 µM, respectively.

Regarding `c1ccc([C@@H]2CCC[C@H](CCN3CCN(c4ccccc4)CC3)O2)cc1`, the Ki in [2] is 0.057 µM; in [3], 0.161 µM.

On to `NCC[C@@H]1CCC[C@H](c2ccccc2)O1`, for which the inhibition is 14% in series [1], 5% in series [20] and 9% in series [21].

For `c1ccc([C@H]2CCC[C@@H](CCNCC3CCCCC3)O2)cc1`, the “inhibition (INH)” value in series [5], in series [9], in series [14] and in series [18] was “Not Active” throughout. The result in [6], in series [7], in series [11], in [15], in [16] and in series [17] was inactive. The outcome in series [19] was inactive. In addition, in [1], the inhibition came to 33%. In addition, the inhibition result in [8], in [10] and in [13] was “inactive” throughout. The inhibition constant (Ki) in [2] is 0.00095 µM; in series [3] it was 0.057 µM. Also, the result in series [12] was Active. For the same molecule, the Activity in series [4] was determined as 67%.

With `c1ccc(CNCC[C@H]2CCC[C@@H](c3ccccc3)O2)cc1`, the “inhibition (INH)” value in series [5], in series [9], in series [14] and in series [18] was “Not Active” in each case. Moreover, the outcome in series [6], in series [7], in [11], in [15], in series [16] and in series [17] was inactive. For the same molecule, the outcome in [19] was inactive. Also, the inhibition result in [8], in series [10] and in [13] was “inactive” in each case. In addition, the inhibitory constant (Ki) in [2] is 0.0054 µM; in [3], 0.426 µM. In series [12], the result was Active. Moreover, in [4], the Activity is listed as 55%.

In the case of `c1ccc([C@H]2CCC[C@@H](CCN3CCCC3)O2)cc1`, the Ki in series [2] was 0.06 µM; in series [3] it was 0.115 µM.

As for `c1ccc([C@H]2CCC[C@@H](CCN3CCN(c4ccccc4)CC3)O2)cc1`, the inhibition in series [1] is 7%. The inhibitory constant (Ki) in [2] stood at 0.021 µM; in series [3] it was 0.131 µM.

In turn, `c1ccc(CCCCNCC[C@@H]2CCC[C@H](c3ccccc3)O2)cc1` registered an inhibition in [1] of 43%. The figures for the Ki in series [2] and in series [3] were 0.015 µM and 0.234 µM, respectively.

For the molecule `CN(C)CC[C@H]1CCC[C@@H](c2ccccc2)O1`, in series [1], the inhibition came to 31%. In addition, the inhibition constant (Ki) is 0.217 µM in series [2] and 4 µM in [3].
